# What was measured:
# SK-APP cells = assay: Aβ40 and Aβ42 levels in SK-APP cells (sandwich ELISA); type: cell-based, human; settings: 10 μM, 48 h treatment
# Procedure: page 35: enzyme concentration (1 U/mL). Inhibitor screening at 10 μM. The mixture was incubated for 60 min at 25 °C under dark conditions and then stopped with 2.5 M sodium acetate. Fluorescence was measured with a FLUOstar Optima (BMG Labtechnologies GmbH, Offenburg, Germany) microplate reader at 545 nm excitation and 585 nm emission. Evaluation of BACE Inhibitors Kinetics. To evaluate the mechanism of BACE1 inhibition of the compounds, substrate-dependent kinetic experiments were performed. BACE activity were measured at five different concentrations substrate (1000 -62,5 μM) in the absence or presence of the select inhibitor at two different concentrations. The results are presented as double reciprocal Lineweaver-Burk plots (1/V vs 1/[S]) Figure S1. Cell culture and treatments. SK-N-MC cells stably expressing the human isoform APP695 (SK-APP cell line […]1) were generated by transfection of SK-N-MC cells with a pCDNA3-APP expression vector, and kindly provided by Dr. MJ Bullido. These cells were cultured in DMEM (Thermo Fisher) medium supplemented with 10% FBS (Thermo Fisher), 1 mM glutamine (Sigma- Aldrich), and 100 unit/ml penicillin (Lonza) and […] streptomycin (Lonza). Cell cultures were maintained in a 5% CO2, humidified atmosphere at 37 °C. SH-SY5Y cells were obtained from the American Type Culture Collection and grown in DMEM media (Gibco), supplemented with 10% foetal bovine serum, and 1% penicillin/streptomycin (Invitrogen). The cells were grown at 37 °C in a humidified 5% CO2 atmosphere. For the treatments, all the compounds were dissolved in dimethyl sulfoxide (DMSO, from Sigma) at an initial stock concentration of 10 mM. […] working solutions were obtained from the dilution of the stock solutions in DMEM media (DMSO control solutions were prepared similarly to the compounds). Okadaic acid (OA, Sigma-Aldrich) was dissolved in DMSO at an initial stock concentration of 60 μM and a 250X working solution was obtained from the dilution of the stock solution in DMEM. All the compounds (250x solutions) were added directly into the wells at the indicated final concentrations for 1 hour before the treatment with OA at a final concentration of 30 nM. DMSO was added at the appropriate concentration to the 34 page 36: control-untreated cells. The cells were maintained in the presence of the OA and the different compounds for 24h. Measurement of cell viability. Cell viability assays were carried out using a 3- […] (Sigma-Aldrich) in 96-well cell culture plates. All cells were then incubated with a 0.5 mg/ml MTT solution (Sigma-Aldrich) at 37 °C for 4 h and then with cell lysis […] The absorbance values were determined at 590 nm. Cell viability was expressed as a percent of OD of control cells, the value of which was defined as 100%. Cell viability in SH-SY5Y were carried out following the same procedure but seeding the cells in 24 well multiplates. Absorbance was measured using a Varioskan Flash multiplate reader (Thermo Scientific) at test 550 nm and reference 664 nm wave-lengths. Compound concentration for SK-APP line was 10 μM and for the SH-SY5Y was 1 and 5 μM. Immunoassays. Levels of Aβ40 and Aβ42 were quantified by sandwich ELISAs (Wako, Osaka, Japan) from cellular lysates and conditioned media collected. CNS penetration: in vitro PAMPA-BBB test. Prediction of the brain penetration was evaluated using a parallel artificial membrane permeability assay (PAMPA).1 Nine quality control compounds (mentioned below) of know BBB permeability were included in each experiment to validate the analysis set.2 Commercial drugs […] dissolved in 250 μL of DMSO (Sigma-Aldrich). 25 μL of these compound stock solutions were taken and 225 μL of DMSO and 4750 μL of PBS pH 7.4 buffer were added to reach 5% of DMSO concentration in the experiment and a final […] Compounds to be determined their ability to pass the brain barrier (0.5-1 mg) were dissolved in 250 μL of DMSO and 4750 μL of PBS pH 7.4 was carefully added to afford a final […]
# BACE1 [1] = target: T1, BACE1 (Homo sapiens, UniProt P56817); assay: Evaluation of BACE inhibitors kinetics (Lineweaver-Burk); type: biochemical; settings: different concentrations of substrate and compound
# T1 sequence (P56817 46-501): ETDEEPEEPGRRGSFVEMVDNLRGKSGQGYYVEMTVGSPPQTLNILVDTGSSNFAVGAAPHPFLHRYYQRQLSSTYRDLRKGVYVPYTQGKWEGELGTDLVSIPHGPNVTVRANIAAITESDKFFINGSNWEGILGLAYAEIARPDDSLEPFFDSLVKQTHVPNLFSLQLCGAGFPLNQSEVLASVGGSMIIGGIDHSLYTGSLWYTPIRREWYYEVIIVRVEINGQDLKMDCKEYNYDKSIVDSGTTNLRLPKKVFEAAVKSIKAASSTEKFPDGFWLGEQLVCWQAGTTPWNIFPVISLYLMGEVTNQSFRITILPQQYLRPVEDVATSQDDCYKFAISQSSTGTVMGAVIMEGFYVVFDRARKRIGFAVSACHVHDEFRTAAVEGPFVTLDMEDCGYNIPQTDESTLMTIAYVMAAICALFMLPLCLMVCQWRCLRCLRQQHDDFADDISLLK
# Procedure: enzyme concentration (1 U/mL). Inhibitor screening at 10 μM. The mixture was incubated for 60 min at 25 °C under dark conditions and then stopped with 2.5 M sodium acetate. Fluorescence was measured with a FLUOstar Optima (BMG
# Labtechnologies GmbH, Offenburg, Germany) microplate reader at 545 nm excitation and 585 nm emission.
# Evaluation of BACE Inhibitors Kinetics. To evaluate the mechanism of BACE1 inhibition of the compounds, substrate-dependent kinetic experiments were performed. BACE activity were measured at five different concentrations substrate (1000 -62,5 µM) in the absence or presence of the select inhibitor at two different concentrations. The results are presented as double reciprocal Lineweaver−Burk plots (1/V vs 1/[S]) Figure S1.
# Cell culture and treatments. SK-N-MC cells stably expressing the human isoform APP695 (SK-APP cell line D1; SKAPP-D1) were generated by transfection of SK-N-MC cells with a pCDNA3-APP expression vector, and kindly provided by Dr. MJ Bullido. These cells were cultured in DMEM (Thermo Fisher) medium supplemented with 10% FBS (Thermo Fisher), 1 mM glutamine (Sigma-Aldrich), and 100 unit/ml penicillin (Lonza) and […] streptomycin (Lonza).
# Cell cultures were maintained in a 5% CO2, humidified atmosphere at 37 °C. […]
# BACE1 [2] = target: T1, BACE1; assay: BACE1 enzymatic assay (FRET); type: biochemical
# Procedure: BACE1 enzymatic assay. BACE1 in vitro assays were carried out using FRET.
# μM) carrying the Swedish mutation and containing a rhodamine as a fluorescence donor and a quencher acceptor at each end was used. The intact substrate is weakly fluorescent and becomes highly fluorescent upon enzymatic cleavage.
# The assays were conducted in 50 mM sodium acetate buffer, pH 4.5, in a final
smiles,measurement,setting,value
O=C(Nc1nc2ccccc2s1)c1ccc(Cn2cc(COc3ccc(C(=O)Nc4nc5ccccc5s4)cc3)nn2)cc1 [compound 8],Aβ40 levels in cellular lysates,SK-APP cells,reducing
same,Aβ40 levels in extracellular fluid,SK-APP cells,reducing
same,Aβ42 levels in extracellular fluid,SK-APP cells,reducing
same,Behavior in the inhibition of BACE1 (Lineweaver–Burk double reciprocal plot),BACE1 [1],substrate‐competitive
same,melting point,,280 to 282 °C (dec.)
same,IC50,BACE1 [2],3.72 µM
